Values after ≈ are worked out from the molar mass of the structure shown.
Key:
Assay type in all cases: functional
Staphylococcus aureus [1] = experiment: Antibacterial activity methicillin-resistant Staphylococcus aureus P4423 assessed as inhibition of bacterial growth by microdilution broth method
Staphylococcus aureus [2] = experiment: Antibacterial activity methicillin-resistant Staphylococcus aureus P4620 assessed as inhibition of bacterial growth by microdilution broth method
Staphylococcus aureus [3] = experiment: Antibacterial activity methicillin-resistant Staphylococcus aureus P4627 assessed as inhibition of bacterial growth by microdilution broth method
Staphylococcus aureus [4] = experiment: Antibacterial activity methicillin-resistant Staphylococcus aureus ST3151 assessed as inhibition of bacterial growth by microdilution broth method
Staphylococcus aureus [5] = experiment: Antibacterial activity methicillin-resistant Staphylococcus aureus B10760 assessed as inhibition of bacterial growth by microdilution broth method
Staphylococcus aureus [6] = experiment: Antibacterial activity methicillin-resistant Staphylococcus aureus USA300 assessed as inhibition of bacterial growth by CLSI based microbroth dilution assay
Bacillus anthracis = experiment: Antibacterial activity Bacillus anthracis Sterne 34F2 assessed as inhibition of bacterial growth by CLSI based microbroth dilution assay
Enterococcus faecalis = experiment: Antibacterial activity Enterococcus faecalis ATCC 33186 assessed as inhibition of bacterial growth by CLSI based microbroth dilution assay
Staphylococcus aureus [7] = experiment: Antibacterial activity Staphylococcus aureus ATCC 6538 assessed as inhibition of bacterial growth incubated for 24 hrs by broth microdilution method
Listeria monocytogenes = experiment: Antibacterial activity Listeria monocytogenes ATCC 7644 assessed as inhibition of bacterial growth incubated for 24 hrs by broth microdilution method
Staphylococcus aureus [8] = experiment: Antibacterial activity Staphylococcus aureus ATCC 588 assessed as inhibition of bacterial growth incubated for 24 hrs by broth microdilution method

What does the source list for O=C(/C=C/c1ccc(O)cc1)c1ccc2c(c1O)CN(Cc1cc(C(F)(F)F)ccc1Cl)CO2?
MIC (Staphylococcus aureus [1]): 25 µg/mL (≈ 51 µM); MIC (Staphylococcus aureus [2]): 25 µg/mL (≈ 51 µM); MIC (Staphylococcus aureus [3]): 25 µg/mL (≈ 51 µM); MIC (Staphylococcus aureus [4]): 25 µg/mL (≈ 51 µM); MIC (Staphylococcus aureus [5]): 25 µg/mL (≈ 51 µM)

With Cc1cc(C(=O)CC(Sc2ccc(Cl)cc2)c2ccc(Cl)cc2)ccc1O (stereo unspecified) as the compound, how does the MIC (Staphylococcus aureus [6]) read?
The MIC was 0.78 µg/mL (≈ 1.87 µM).

What about the MIC (Bacillus anthracis) of the same compound?
Its MIC is 3.12 µg/mL (≈ 7.49 µM).

And the MIC (Enterococcus faecalis)?
The MIC was 1.56 µg/mL (≈ 3.74 µM).

What does the source list for O=C(CCc1ccc(O)cc1)c1c(O)cc(O)cc1O [PHLORETIN]?
MIC (Staphylococcus aureus [7]): 7.81 µg/mL (≈ 28.5 µM); MIC (Listeria monocytogenes): 62.5 µg/mL (≈ 228 µM); MIC (Staphylococcus aureus [8]): 7.81 µg/mL (≈ 28.5 µM)

Reference: ChEMBL document CHEMBL5233215, “Recent developments of chalcones as potential antibacterial agents in medicinal chemistry” (Eur J Med Chem, 2020)
